# Values of other authors as cited in US20200206183A1, “SYSTEMS, METHODS, AND FORMULATIONS FOR TREATING CANCER” (Research Cancer Institute of America, priority 2011, published 2020).
# What was measured:
# [1] = test system: tyrosine kinase; settings: measured in 11 subjects
# [2] = test system: patients who had cancer deemed no longer treatable by conventional methods
# [3] = test system: patients
Compound,Subjects with a decrease in tyrosine kinase levels [1] [subjects],Dose concluded for further study ([2]; intravenous) [mg/m2],"Suppression as defined by the radiological criteria of WHO ([2]; up to 1700 mg/m2 intravenous for about 3 weeks, 50 patients)","Patients with sustained decreases in unique cancer markers ([2]; up to 1700 mg/m2 intravenous, 50 patients)",Toxicity ([3]; oral doses up to 36 grams per day),"Patients with stable disease ([3]; stable disease for more than 6 months while on the drug, one study) [%]"
O=c1c(O)c(-c2ccc(O)c(O)c2)oc2cc(O)cc(O)c12 [quercetin],9,≤ 1400,None of the patients achieved suppression,two showed sustained decreases,–,–
sodium phenylbutyrate [SPB],–,–,–,–,minimal toxicity,25
